Series [1] addresses T1, NCI-H441 tumor cell homogenates (activated EGFR) (Homo sapiens, UniProt P00533).
T1 construct: endogenous in cells; host or cells: NCI-H441
Briefly: binding competition on tumor cell homogenates. The protocol: (§1) FIG. 1: Binding affinity constant of Compound (II) determined in competition experiments on NCI-H3255 (A) and NCI-H441 (B) cell line extracts. NCI-H3255 and NCI-H441 cell line extracts were incubated at room temperature for 90 min with Compound (II) (0.5-0.7 nM) and with increasing concentrations of Compound (IIa) (0.05 nM to 10 μM).
(§2) The binding affinity of Compound (I) and the number of binding sites were first evaluated on NCI-H3255 and NCI-H441 tumor cell homogenates (FIG. 1). […] The number of binding sites was of the same order of magnitude (6.1±0.5×10^9 sites/μg protein).

Series [2] concerns the target T2, NCI-H3255 tumor cell homogenates (activated EGFR) (Homo sapiens, UniProt P00533, L858R).
T2 construct: endogenous in cells; host or cells: NCI-H3255
Briefly: binding competition on tumor cell homogenates. The protocol: as §1, §2

A short description of series [3]: biodistribution in tumor-bearing Nude rats (ex vivo gamma counting). The protocol: Dynamic PET scan imaging and ex vivo gamma counting were performed on three cancer xenografts (NCI-H441, NCI-H3255, NCI-H1975) in Nude rats. Xenografts were initiated in athymic, Hsd:RH-Foxnlrnu rats (Harlan, The Netherlands) by subcutaneous injection of 2×10^7 cells in 200 μL RPMI 1640 in the left and right flanks. NCI-H3255 tumor cells were injected in the right flank and NCI-H441 or NCI-H1975 in the left flank. Each study consisted in two experiments on 18 or 19 rats, for a total of 113 rats. Injection of NCI-H3255 cells was performed on DO, 24 to 72 hours after a whole-body irradiation with a […] (5 Gy, ^60Co, BioMep SARL, Bretenières, France). […]
The radiotracer solution was diluted in NaCl 0.9% to prepare a solution of activity 4-6 MBq (gamma-counting experiments) or 25-35 MBq (PET imaging experiments) in a volume of 300-400 or 600-800 μL, respectively. The radioactivity in the syringe was measured before and after tracer injection to determine the injected dose (ID) to animals. […]
For ex vivo gamma counting, after the determined uptake period or after imaging, rats were euthanized by decapitation, and the following organs were harvested and weighed: tumor, kidneys, blood, liver, heart, tail, thigh muscle, lungs, spleen and skin. Tracer distribution was assessed by determining ^18F content in each tissue with a gamma-well counter (PerkinElmer 2480 Wizard2 3). […]

Series [4] in a line: radiochemical stability in vehicle by HPLC. To be noted: room temperature, vehicle physiologic serum/ethanol 87.5/12.5. Format: physicochemical. The protocol:
By this method, the final radiolabeled compound can be obtained with a radiochemical purity greater than 98% in 100-110 min with a yield that can reach 25% (decay corrected). It has been noticed that an uncompleted evaporation of the solvents used for the purification of [^18F]Fluoroethyltosylate hampers the second step and conducts to lower yields. Specific activity of productions was in the range of […]. The radiolabeled compound is stable in the conditions of formulation as radiochemical purity still greater than 95% 20 h after production with a storage at room temperature.
After radiosynthesis, the stability of the radiotracer was evaluated by HPLC both in its vehicle and in rat plasma. Compound (I) was formulated in physiologic serum/ethanol with the respective proportion 87.5/12.5 (v/v). A mixture of compounds (I) (i.e. radiolabelled) and (Ia) (i.e. cold analogue) was stable for up to 20 hours at room temperature in its vehicle, only one peak being detected at the expected retention time. In rat plasma two peaks were detected: one at 3.15 minutes and one at 8.02 minutes (corresponding to a mixture of compounds (I) and (Ia)) after an incubation at +37° C. for 4 hours.

The subject of series [5] is human lung tumors (wild type EGFR, L858R mutated or exon 19 deleted EGFR). Description: autoradiography on human frozen tumor sections.
Text: Three types of human lung tumors were included: tumors harboring wild type EGFR and tumors carrying L858R mutated or exon 19 deleted EGFR genes.
Series [6] deals with T3, NCI-H3255 tumor homogenates (activated EGFR) (Homo sapiens, UniProt P00533, L858R).
T3 construct: from tissue; host or cells: NCI-H3255 tumor homogenate
T3 sequence (P00533 25-1210 L858R): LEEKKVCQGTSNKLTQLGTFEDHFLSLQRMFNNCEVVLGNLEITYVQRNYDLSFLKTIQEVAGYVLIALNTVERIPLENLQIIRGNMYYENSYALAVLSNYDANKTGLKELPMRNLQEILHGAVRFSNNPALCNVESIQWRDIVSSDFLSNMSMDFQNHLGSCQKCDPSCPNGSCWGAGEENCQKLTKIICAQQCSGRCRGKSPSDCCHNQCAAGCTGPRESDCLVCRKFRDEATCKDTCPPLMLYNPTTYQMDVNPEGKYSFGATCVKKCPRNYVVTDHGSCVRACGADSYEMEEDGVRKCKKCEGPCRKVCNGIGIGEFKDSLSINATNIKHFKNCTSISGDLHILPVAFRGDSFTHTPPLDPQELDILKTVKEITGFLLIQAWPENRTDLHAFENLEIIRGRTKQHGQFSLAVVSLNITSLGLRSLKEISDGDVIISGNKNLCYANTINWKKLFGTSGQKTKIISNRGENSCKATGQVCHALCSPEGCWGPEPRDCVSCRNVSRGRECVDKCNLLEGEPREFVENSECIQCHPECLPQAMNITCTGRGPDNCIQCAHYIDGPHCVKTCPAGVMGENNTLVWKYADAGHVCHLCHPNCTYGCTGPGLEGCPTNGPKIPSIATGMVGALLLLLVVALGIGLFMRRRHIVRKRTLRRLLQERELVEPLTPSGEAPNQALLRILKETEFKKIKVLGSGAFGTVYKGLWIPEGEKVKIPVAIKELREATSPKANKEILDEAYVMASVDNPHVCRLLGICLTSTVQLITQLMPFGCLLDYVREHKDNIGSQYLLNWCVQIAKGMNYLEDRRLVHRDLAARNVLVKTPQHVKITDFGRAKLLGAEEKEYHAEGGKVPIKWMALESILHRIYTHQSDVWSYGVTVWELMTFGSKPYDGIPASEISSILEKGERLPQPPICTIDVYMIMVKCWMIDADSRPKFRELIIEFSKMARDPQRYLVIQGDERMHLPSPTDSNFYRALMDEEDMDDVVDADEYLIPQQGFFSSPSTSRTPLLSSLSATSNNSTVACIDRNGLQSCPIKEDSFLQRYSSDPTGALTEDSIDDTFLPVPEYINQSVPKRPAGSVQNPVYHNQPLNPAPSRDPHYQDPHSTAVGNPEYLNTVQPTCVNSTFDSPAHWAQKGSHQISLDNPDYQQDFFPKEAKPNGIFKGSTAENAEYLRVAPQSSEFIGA
Briefly: binding competition and binding kinetic on tumor homogenates. The protocol: (§3) FIG. 2: Binding affinity constant of Compound (II) determined in competition experiments on NCI-H3255 (A) and NCI-H1975 (B) tumor extracts. NCI-H3255 and NCI-H1975 tumor extracts were incubated at room temperature for 90 min with Compound (II) (0.1-0.3 nM) and with increasing concentrations of Compound (IIa) (0.25 nM to 1 μM).
(§4) FIG. 3: Binding kinetic of Compound (II) evaluated on NCI-H3255 (A) and NCI-H1975 (B) tumor extracts. Compound (II) (1.5-2.5 nM) was incubated with extracts for 2 to 90 minutes at room temperature. Non-specific binding was evaluated in the presence of a>100 fold excess Compound (IIa).
(§5) Similar experiments were performed on NCI-H3255 and NCI-H1975 tumor homogenates (FIG. 2). […] The number of binding sites was 1.1±1.5×10^9 and 1.6±1.8×10^9 sites/μg protein respectively in NCI-H3255 and NCI-H1975 tumor homogenates.
(§6) The binding kinetic of Compound (I) was also assessed in NCI-H3255 and NCI-H1975 tumor homogenates (FIG. 3).

Series [7] addresses T4, NCI-H1975 tumor homogenates (activated EGFR) (Homo sapiens, UniProt P00533, L858R/T790M).
T4 construct: from tissue; host or cells: NCI-H1975 tumor homogenate
The description is as above. The protocol: as §3, §4, §5, §6

The mark [8] stands for this setting: read-out: binding affinity (Kd).
The mark [9] stands for this setting: read-out: dissociation constant (Koff) (converted).

The structures appear in SMILES notation. Some results are limits rather than exact numbers.

T4 sequence (P00533 25-1210 T790M/L858R): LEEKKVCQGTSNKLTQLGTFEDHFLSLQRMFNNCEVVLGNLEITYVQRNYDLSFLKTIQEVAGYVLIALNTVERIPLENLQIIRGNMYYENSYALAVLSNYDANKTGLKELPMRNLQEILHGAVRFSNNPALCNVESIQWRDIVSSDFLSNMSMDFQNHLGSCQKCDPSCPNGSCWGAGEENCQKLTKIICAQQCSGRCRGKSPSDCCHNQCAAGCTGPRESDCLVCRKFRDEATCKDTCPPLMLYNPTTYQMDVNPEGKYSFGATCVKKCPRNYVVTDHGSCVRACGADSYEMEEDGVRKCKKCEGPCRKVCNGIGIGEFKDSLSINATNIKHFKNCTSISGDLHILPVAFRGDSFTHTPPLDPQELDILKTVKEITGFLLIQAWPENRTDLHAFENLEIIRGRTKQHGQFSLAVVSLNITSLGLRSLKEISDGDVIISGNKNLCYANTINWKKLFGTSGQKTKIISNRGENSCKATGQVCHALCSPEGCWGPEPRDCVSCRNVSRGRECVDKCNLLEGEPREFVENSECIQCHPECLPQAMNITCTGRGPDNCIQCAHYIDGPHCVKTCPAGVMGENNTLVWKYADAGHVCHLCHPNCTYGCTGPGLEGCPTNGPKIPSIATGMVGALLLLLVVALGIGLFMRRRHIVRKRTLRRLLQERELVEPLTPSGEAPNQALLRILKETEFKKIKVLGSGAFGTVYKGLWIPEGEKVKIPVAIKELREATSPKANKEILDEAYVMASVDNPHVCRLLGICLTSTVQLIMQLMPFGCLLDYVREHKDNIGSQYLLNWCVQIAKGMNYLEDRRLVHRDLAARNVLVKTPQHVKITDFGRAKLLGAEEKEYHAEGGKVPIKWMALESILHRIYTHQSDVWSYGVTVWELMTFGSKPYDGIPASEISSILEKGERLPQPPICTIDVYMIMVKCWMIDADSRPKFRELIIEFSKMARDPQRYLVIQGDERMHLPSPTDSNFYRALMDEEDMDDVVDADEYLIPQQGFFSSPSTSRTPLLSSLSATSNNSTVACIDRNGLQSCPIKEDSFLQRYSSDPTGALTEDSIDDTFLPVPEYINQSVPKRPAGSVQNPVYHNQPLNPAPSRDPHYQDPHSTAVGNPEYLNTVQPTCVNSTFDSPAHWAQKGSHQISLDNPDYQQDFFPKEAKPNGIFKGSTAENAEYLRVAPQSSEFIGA
T1 sequence (P00533 25-1210): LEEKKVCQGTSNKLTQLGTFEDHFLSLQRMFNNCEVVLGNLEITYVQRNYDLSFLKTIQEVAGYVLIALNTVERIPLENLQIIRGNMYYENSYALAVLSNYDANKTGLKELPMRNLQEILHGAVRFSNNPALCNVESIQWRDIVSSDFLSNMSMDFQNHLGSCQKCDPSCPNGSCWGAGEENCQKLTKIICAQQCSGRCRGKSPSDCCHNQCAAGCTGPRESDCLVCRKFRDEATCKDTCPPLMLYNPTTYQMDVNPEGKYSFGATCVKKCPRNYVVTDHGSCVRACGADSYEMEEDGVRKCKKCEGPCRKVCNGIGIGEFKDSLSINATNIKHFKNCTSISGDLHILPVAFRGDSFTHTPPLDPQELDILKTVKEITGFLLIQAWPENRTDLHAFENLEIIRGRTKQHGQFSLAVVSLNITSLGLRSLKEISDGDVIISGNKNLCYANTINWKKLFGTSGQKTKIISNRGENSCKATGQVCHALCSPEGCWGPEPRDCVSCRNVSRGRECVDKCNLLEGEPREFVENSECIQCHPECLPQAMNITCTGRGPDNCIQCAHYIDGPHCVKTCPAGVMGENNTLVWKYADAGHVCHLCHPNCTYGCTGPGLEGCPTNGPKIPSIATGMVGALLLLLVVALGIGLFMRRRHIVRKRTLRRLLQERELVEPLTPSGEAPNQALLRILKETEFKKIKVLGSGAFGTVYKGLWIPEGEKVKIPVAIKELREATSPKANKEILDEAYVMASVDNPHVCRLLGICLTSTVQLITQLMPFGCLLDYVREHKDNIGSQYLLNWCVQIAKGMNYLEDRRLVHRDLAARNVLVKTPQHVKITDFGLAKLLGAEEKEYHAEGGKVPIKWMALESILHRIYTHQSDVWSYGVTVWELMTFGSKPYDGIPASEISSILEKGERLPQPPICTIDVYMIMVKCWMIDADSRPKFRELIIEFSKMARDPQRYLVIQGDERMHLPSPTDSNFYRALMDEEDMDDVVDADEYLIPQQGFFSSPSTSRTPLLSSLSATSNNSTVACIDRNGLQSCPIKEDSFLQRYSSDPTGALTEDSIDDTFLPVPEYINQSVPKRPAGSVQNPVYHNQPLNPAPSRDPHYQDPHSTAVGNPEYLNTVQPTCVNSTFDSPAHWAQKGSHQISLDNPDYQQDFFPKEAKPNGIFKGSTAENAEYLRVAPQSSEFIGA
T2 sequence (P00533 25-1210 L858R): as the sequence (P00533 25-1210 L858R) above

What is called koff is a measure of how fast the partners let go of each other. With `CC(C)C1NC(=O)Cc2ccc(Cl)cc2Nc2ncnc3cc(OCC[18F])c(cc23)OCCCNC1=O` (centres unmarked) [Compound (I)], the “number of binding sites” value in series [1] is recorded as 6.1±0.5×10^9 sites/μg protein; in series [2] it was 9.1±3.1×10^9 sites/μg protein; in series [6] it was 1.1±1.5×10^9 sites/μg protein; in series [7] it was 1.6±1.8×10^9 sites/μg protein. The Kd in series [1] (setting [8]) was determined as 25.8 ± 11.1 nM; in series [2] (setting [8]) it was 23.8 ± 9 nM; in series [6] (read-out: binding affinity) it was 2.8 ± 2.4 nM; in series [7] (read-out: binding affinity), 4.7 ± 2 nM. Also, the uptake in blood in series [3] (after 45 min) was less than 0.05 % ID/g. Moreover, in series [3] (at 90 min), the “absolute uptake in tumors” value is recorded as less than 0.5 % ID/g. Besides, the Radiochemical stability in series [4] was greater than 20 h. The “specific binding on frozen tumor sections” value in series [5] is reported as “specific binding of Compound (I) was observed on all tumor types”. The koff in series [6] (setting [9]) was 0.0019 s⁻¹; in series [7] (setting [9]) it was 0.0045 s⁻¹.

The values are drawn from patent publication US10716869B2, “Radiolabeled macrocyclic EGFR inhibitor” (Oncodesign SA, priority 2016, dated 2020).
